# Results from patent US20210269434A1, “TRICYCLIC COMPOUNDS AS INHIBITORS OF KRAS” (Incyte Corporation, priority 2020, published 2021).
# Assays:
# KRAS G12C = KRAS G12C (Homo sapiens, UniProt P01116, G12C); experiment: GDP-GTP exchange assay (KRAS_G12C exchange); type: biochemical; details: bodipy-GDP loaded KRAS G12C 2.5 nM, SOS1 150 nM, GppNHp; 2 hours pre-incubation, 2 hours reaction; read-out: G12C_exchange
# In short: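 Fluorescence exchange of bodipy-GDP for GppNHp, SOS1-driven, read at 485/520 nm; IC50 from four-parameter variable-slope fit. Both mutants used 2.5 nM final labelled protein and a 2 h compound pre-incubation. G12C reaction had 500 uM GppNHp and 150 nM SOS1 for 2 h; G12D ran 4 h.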
# [1] = tested on: MIA PaCa-2 (KRAS G12C) cells; experiment: Cellular pERK HTRF assay (KRAS_G12C pERK); type: cell-based, human; details: Homo sapiens, MIA PaCa-2, 4 hours incubation, read-out: G12C_pERK
# In short: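 MIA PaCa-2 cells plated overnight, then exposed to compound for 4 h at 37 °C (G12C compounds). Phospho-ERK1/2 measured in lysates by HTRF (665/620 nm) after overnight antibody incubation; IC50 from percent inhibition versus log concentration.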
# Sequence of KRAS G12C (P01116 1-188 isoform P01116-2 G12C): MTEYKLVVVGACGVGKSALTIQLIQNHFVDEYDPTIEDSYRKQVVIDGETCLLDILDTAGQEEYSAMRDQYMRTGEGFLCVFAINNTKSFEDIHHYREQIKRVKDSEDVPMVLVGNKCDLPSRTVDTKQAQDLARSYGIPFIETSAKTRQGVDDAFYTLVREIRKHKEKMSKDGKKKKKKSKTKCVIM
Compound,IC50 (KRAS G12C) [µM],IC50 [1] [µM]
"C=CC(=O)N1CC[C@H](n2nnc3c(OC[C@@H]4CCCN4C)nc4c(F)c(-c5ccc(F)cc5)c(C)cc4c32)C[C@H]1CC#N [Example 135, 2-((2S,4S)-1-acryloyl-4-(6-fluoro-7-(4-fluorophenyl)-8-methyl-4-(((S)-1-methylpyrrolidin-2-yl)methoxy)-1H-[1,2,3]triazolo[4,5-c]quinolin-1-yl)piperidin-2-yl)acetonitrile]",≤ 0.1,≤ 0.1
"Cc1cc2c(nc(OC[C@@H]3CCCN3C)c3nnn([C@H]4CCN(C(=O)/C=C/CF)[C@H](CC#N)C4)c32)c(F)c1-c1ccc(F)cc1 [Example 136, 2-((2S,4S)-4-(6-fluoro-7-(4-fluorophenyl)-8-methyl-4-(((S)-1-methylpyrrolidin-2-yl)methoxy)-1H-[1,2,3]triazolo[4,5-c]quinolin-1-yl)-1-((E)-4-fluorobut-2-enoyl)piperidin-2-yl)acetonitrile]",≤ 0.1,≤ 0.1
"C=CC(=O)N1CC[C@H](n2nnc3c(OC[C@@H]4CCCN4C)nc4c(F)c(-c5cccc(C)c5C)c(C)cc4c32)C[C@H]1CC#N [Example 137, 2-((2S,4S)-1-acryloyl-4-(7-(2,3-dimethylphenyl)-6-fluoro-8-methyl-4-(((S)-1-methylpyrrolidin-2-yl)methoxy)-1H-[1,2,3]triazolo[4,5-c]quinolin-1-yl)piperidin-2-yl)acetonitrile]",≤ 0.1,≤ 0.1
"Cc1cccc(-c2c(C)cc3c(nc(OC[C@@H]4CCCN4C)c4nnn([C@H]5CCN(C(=O)/C=C/CF)[C@H](CC#N)C5)c43)c2F)c1C [Example 138, 2-((2S,4S)-4-(7-(2,3-dimethylphenyl)-6-fluoro-8-methyl-4-(((S)-1-methylpyrrolidin-2-yl)methoxy)-1H-[1,2,3]triazolo[4,5-c]quinolin-1-yl)-1-((E)-4-fluorobut-2-enoyl)piperidin-2-yl)acetonitrile]",≤ 0.1,≤ 0.1
"CC#CC(=O)N1CC[C@H](n2nnc3c(OC[C@@H]4CCCN4C)nc4c(F)c(-c5cccc(C)c5C)c(C)cc4c32)C[C@H]1CC#N [Example 139, 2-((2S,4S)-1-(but-2-ynoyl)-4-(7-(2,3-dimethylphenyl)-6-fluoro-8-methyl-4-(((S)-1-methylpyrrolidin-2-yl)methoxy)-1H-[1,2,3]triazolo[4,5-c]quinolin-1-yl)piperidin-2-yl)acetonitrile]",≤ 0.1,≤ 0.1
"COC/C=C/C(=O)N1CC[C@H](n2nnc3c(OC[C@@H]4CCCN4C)nc4c(F)c(-c5cccc(C)c5C)c(C)cc4c32)C[C@H]1CC#N [Example 140, 2-((2S,4S)-4-(7-(2,3-dimethylphenyl)-6-fluoro-8-methyl-4-(((S)-1-methylpyrrolidin-2-yl)methoxy)-1H-[1,2,3]triazolo[4,5-c]quinolin-1-yl)-1-((E)-4-methoxybut-2-enoyl)piperidin-2-yl)acetonitrile]",≤ 0.1,≤ 0.1
"Cc1cccc(-c2c(C)cc3c(nc(OC[C@@H]4CCCN4C)c4nnn([C@H]5CCN(C(=O)/C=C/C(F)F)[C@H](CC#N)C5)c43)c2F)c1C [Example 141, 2-((2S,4S)-1-((E)-4,4-difluorobut-2-enoyl)-4-(7-(2,3-dimethylphenyl)-6-fluoro-8-methyl-4-(((S)-1-methylpyrrolidin-2-yl)methoxy)-1H-[1,2,3]triazolo[4,5-c]quinolin-1-yl)piperidin-2-yl)acetonitrile]",≤ 0.1,≤ 0.1
"C=CC(=O)N1CC[C@H](n2nnc3c(O[C@@H](C)CN(C)C)nc4c(F)c(-c5cccc(C)c5C)c(C)cc4c32)C[C@H]1CC#N [Example 142, 2-((2S,4S)-1-acryloyl-4-(4-(((S)-1-(dimethylamino)propan-2-yl)oxy)-7-(2,3-dimethylphenyl)-6-fluoro-8-methyl-1H-[1,2,3]triazolo[4,5-c]quinolin-1-yl)piperidin-2-yl)acetonitrile]",≤ 0.1,≤ 0.1
"Cc1cccc(-c2c(C)cc3c(nc(O[C@@H](C)CN(C)C)c4nnn([C@H]5CCN(C(=O)/C=C/CF)[C@H](CC#N)C5)c43)c2F)c1C [Example 143, 2-((2S,4S)-4-(4-(((S)-1-(dimethylamino)propan-2-yl)oxy)-7-(2,3-dimethylphenyl)-6-fluoro-8-methyl-1H-[1,2,3]triazolo[4,5-c]quinolin-1-yl)-1-((E)-4-fluorobut-2-enoyl)piperidin-2-yl)acetonitrile]",≤ 0.1,≤ 0.1
"Cc1cccc(-c2c(C)cc3c(nc(O[C@@H](C)CN(C)C)c4nnn([C@H]5CCN(C(=O)/C=C/C(F)F)[C@H](CC#N)C5)c43)c2F)c1C [Example 144, 2-((2S,4S)-1-((E)-4,4-difluorobut-2-enoyl)-4-(4-(((S)-1-(dimethylamino)-propan-2-yl)oxy)-7-(2,3-dimethylphenyl)-6-fluoro-8-methyl-1H-[1,2,3]triazolo[4,5-c]quinolin-1-yl)piperidin-2-yl)acetonitrile]",≤ 0.1,≤ 0.1
"COC/C=C/C(=O)N1CC[C@H](n2nnc3c(O[C@@H](C)CN(C)C)nc4c(F)c(-c5cccc(C)c5C)c(C)cc4c32)C[C@H]1CC#N [Example 145, 2-((2S,4S)-4-(4-(((S)-1-(dimethylamino)propan-2-yl)oxy)-7-(2,3-dimethylphenyl)-6-fluoro-8-methyl-1H-[1,2,3]triazolo[4,5-c]quinolin-1-yl)-1-((E)-4-methoxybut-2-enoyl)piperidin-2-yl)acetonitrile]",≤ 0.1,≤ 0.1
"CC#CC(=O)N1CC[C@H](n2nnc3c(O[C@@H](C)CN(C)C)nc4c(F)c(-c5cccc(C)c5C)c(C)cc4c32)C[C@H]1CC#N [Example 146, 2-((2S,4S)-1-(but-2-ynoyl)-4-(4-(((S)-1-(dimethylamino)propan-2-yl)oxy)-7-(2,3-dimethylphenyl)-6-fluoro-8-methyl-1H-[1,2,3]triazolo[4,5-c]quinolin-1-yl)piperidin-2-yl)acetonitrile]",≤ 0.1,≤ 0.1
"C=CC(=O)N1CC[C@H](n2nnc3c(N4CC(N(C)C)C4)nc4c(F)c(-c5cccc(C)c5C)c(C)cc4c32)C[C@H]1CC#N [Example 147, 2-((2S,4S)-1-acryloyl-4-(4-(3-(dimethylamino)azetidin-1-yl)-7-(2,3-dimethylphenyl)-6-fluoro-8-methyl-1H-[1,2,3]triazolo[4,5-c]quinolin-1-yl)piperidin-2-yl)acetonitrile]",≤ 0.1,≤ 0.1
"Cc1cccc(-c2c(C)cc3c(nc(N4CC(N(C)C)C4)c4nnn([C@H]5CCN(C(=O)/C=C/C(F)F)[C@H](CC#N)C5)c43)c2F)c1C [Example 148, 2-((2S,4S)-1-((E)-4,4-difluorobut-2-enoyl)-4-(4-(3-(dimethylamino)azetidin-1-yl)-7-(2,3-dimethylphenyl)-6-fluoro-8-methyl-1H-[1,2,3]triazolo[4,5-c]quinolin-1-yl)piperidin-2-yl)acetonitrile]",≤ 0.1,≤ 0.1
"Cc1cccc(-c2c(Cl)cc3c(nc(N4CC(N(C)C)C4)c4ncn([C@H]5CCN(C(=O)/C=C/CF)[C@H](CC#N)C5)c43)c2F)c1C [Example 149, 2-((2S,4S)-4-(8-chloro-4-(3-(dimethylamino)azetidin-1-yl)-7-(2,3-dimethylphenyl)-6-fluoro-1H-imidazo[4,5-c]quinolin-1-yl)-1-((E)-4-fluorobut-2-enoyl)piperidin-2-yl)acetonitrile]",≤ 0.1,≤ 0.1
"Cc1nccn1-c1nc2c(F)c(-c3ccccc3)c(Cl)cc2c2c1ncn2[C@H]1CCN(C(=O)/C=C/CN(C)C)[C@H](CC#N)C1 [Example 151, 2-((2S,4S)-4-(8-chloro-6-fluoro-4-(2-methyl-1H-imidazol-1-yl)-7-phenyl-1H-imidazo[4,5-c]quinolin-1-yl)-1-((E)-4-(dimethylamino)but-2-enoyl)piperidin-2-yl)acetonitrile]",≤ 0.1,≤ 0.1
"Cc1nccn1-c1nc2c(F)c(-c3ccccc3)c(Cl)cc2c2c1ncn2[C@H]1CCN(C(=O)/C=C/CF)[C@H](CC#N)C1 [Example 152, 2-((2S,4S)-4-(8-chloro-6-fluoro-4-(2-methyl-1H-imidazol-1-yl)-7-phenyl-1H-imidazo[4,5-c]quinolin-1-yl)-1-((E)-4-fluorobut-2-enoyl)piperidin-2-yl)acetonitrile]",≤ 0.1,≤ 0.1
"Cc1nccn1-c1nc2c(F)c(-c3ccccc3)c(Cl)cc2c2c1nnn2[C@H]1CCN(C(=O)/C=C/CN(C)C)[C@H](CC#N)C1 [Example 153, 2-((2S,4S)-4-(8-chloro-6-fluoro-4-(2-methyl-1H-imidazol-1-yl)-7-phenyl-1H-[1,2,3]triazolo[4,5-c]quinolin-1-yl)-1-((E)-4-(dimethylamino)but-2-enoyl)piperidin-2-yl)acetonitrile]",≤ 0.1,≤ 0.1
"C=CC(=O)N1CC[C@H](n2nnc3c(N4CC(N(C)C)C4)nc4c(F)c(-c5ccccc5)c(Cl)cc4c32)C[C@H]1CC#N [Example 154, 2-((2S,4S)-1-acryloyl-4-(8-chloro-4-(3-(dimethylamino)azetidin-1-yl)-6-fluoro-7-phenyl-1H-[1,2,3]triazolo[4,5-c]quinolin-1-yl)piperidin-2-yl)acetonitrile]",≤ 0.1,≤ 0.1
"C=CC(=O)N1CC[C@H](n2nnc3c(OC[C@@H]4CCCN4C)nc4c(F)c(-c5ccccc5)c(Cl)cc4c32)C[C@H]1CC#N [Example 155, 2-((2S,4S)-1-acryloyl-4-(8-chloro-6-fluoro-4-(((S)-1-methylpyrrolidin-2-yl)methoxy)-7-phenyl-1H-[1,2,3]triazolo[4,5-c]quinolin-1-yl)piperidin-2-yl)acetonitrile]",≤ 0.1,≤ 0.1
